Data published in ChEMBL document CHEMBL1250448, “Inhibitor hijacking of Akt activation” (Nat Chem Biol, 2009).
Active and inactive are the calls of the source. No cut-off for these calls is given here.

Key:
[1] = biological target: RAC-alpha serine/threonine-protein kinase (Rattus norvegicus) (UniProt P47196); assay: Induction AKT1 Thr308 hyperphosphorylation in insulin-induced rat L6 cells after 20 mins before insulin stimulation by immunoblotting; format: cell-based
MCF7 [2] = assay: Induction of myristoylated AKT2 M225G and kinase dead D289A mutant Ser473 hyperphosphorylation expressed in MCF7 cells at 2.5 uM after 30 mins by immunoblotting; format: cell-based
HEK-293T [3] = assay: Induction myristoylated AKT2 M225G mutant Thr308 hyperphosphorylation expressed in HEK293T cells at 2.5 uM after 30 mins pretreated with pan-PI3K inhibitor PIK90 for 10 mins before compound addition by immunoblotting; format: cell-based
MiaPaCa2 [4] = assay: Induction of myristoylated AKT2 M225G mutant Thr308 hyperphosphorylation expressed in MiaPaCa2 cells at 2.5 uM after 30 mins by immunoblotting; format: cell-based
[5] = biological target: T1, RAC-alpha serine/threonine-protein kinase (Homo sapiens, UniProt P31749); assay: Induction of flag-tagged wild type AKT1 Thr308 hyperphosphorylation expressed in HEK293 cells coexpressing HA-tagged AKT1 M227G after 30 mins by immunoblotting
T1 sequence (P31749 whole entry): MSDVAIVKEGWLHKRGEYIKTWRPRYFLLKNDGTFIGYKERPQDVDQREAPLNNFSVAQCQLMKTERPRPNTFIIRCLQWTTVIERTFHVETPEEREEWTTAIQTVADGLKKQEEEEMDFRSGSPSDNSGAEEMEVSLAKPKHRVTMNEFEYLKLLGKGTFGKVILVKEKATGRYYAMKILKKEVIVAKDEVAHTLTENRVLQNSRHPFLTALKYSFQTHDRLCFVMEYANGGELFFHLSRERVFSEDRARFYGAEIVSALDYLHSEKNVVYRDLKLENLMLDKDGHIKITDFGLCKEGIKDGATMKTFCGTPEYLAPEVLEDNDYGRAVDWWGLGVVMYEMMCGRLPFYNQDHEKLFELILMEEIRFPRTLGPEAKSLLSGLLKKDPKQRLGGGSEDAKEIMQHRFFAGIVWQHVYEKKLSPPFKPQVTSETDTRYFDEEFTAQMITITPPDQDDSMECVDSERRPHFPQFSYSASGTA

HEK-293T [6] = assay: Induction of myristoylated AKT3 M229G mutant Ser473 hyperphosphorylation expressed in HEK293T cells at 2.5 uM after 30 mins pretreated with PDK1 inhibitor BX-795 for 10 mins before compound addition by immunoblotting; format: cell-based
[7] = biological target: T1, RAC-alpha serine/threonine-protein kinase; assay: Induction of flag-tagged wild type AKT1 Ser473 hyperphosphorylation expressed in HEK293 cells coexpressing HA-tagged AKT1 M227G after 30 mins by immunoblotting
HEK-293T [8] = assay: Induction of myristoylated AKT3 M229G mutant Thr308 hyperphosphorylation expressed in HEK293T cells at 2.5 uM after 30 mins pretreated with mTOR kinase inhibitor PP242 for 10 mins before compound addition by immunoblotting; format: cell-based
[9] = tested on: RAC-alpha serine/threonine-protein kinase (Homo sapiens), P31749 [M227G]; assay: Inhibition of myristoylated AKT1 M227G mutant expressed in HEK293T cells assessed as reduction of GSK3-beta Ser9 phosphorylation after 30 mins by immunoblotting; format: cell-based; conditions: HEK-293T
Chain of RAC-alpha serine/threonine-protein kinase (Homo sapiens), P31749 [M227G] (P31749 whole entry M227G): as the sequence (P31749 whole entry) above, with M227G counted along it

[10] = tested on: RAC-alpha serine/threonine-protein kinase (Homo sapiens), P31749 [M227G]; assay: Induction of myristoylated AKT1 M227G mutant Thr308 hyperphosphorylation expressed in HEK293 cells after 30 mins by immunoblotting; conditions: HEK-293
HEK-293T [11] = assay: Induction of myristoylated AKT3 M229G mutant Thr308 hyperphosphorylation expressed in HEK293T cells at 2.5 uM after 30 mins pretreated with pan-PI3K inhibitor PIK90 for 10 mins before compound addition by immunoblotting; format: cell-based
PC-3 = assay: Induction of myristoylated AKT2 M225G and kinase dead D289A mutant Ser473 hyperphosphorylation expressed in PC3 cells at 2.5 uM after 30 mins by immunoblotting; format: cell-based
HEK-293T [12] = assay: Induction myristoylated AKT2 M225G mutant Ser473 hyperphosphorylation expressed in HEK293T cells at 2.5 uM after 30 mins by immunoblotting; format: cell-based
HEK-293T [13] = assay: Induction myristoylated AKT2 M225G mutant Ser473 hyperphosphorylation expressed in HEK293T cells at 2.5 uM after 30 mins pretreated with PDK1 inhibitor BX-795 for 10 mins before compound addition by immunoblotting; format: cell-based
[14] = tested on: RAC-alpha serine/threonine-protein kinase (Homo sapiens), P31749 [M227G]; assay: Induction of mCherry tagged AKT1 M227G Thr308 hyperphosphorylation expressed in HEK293 cells at 2.5 uM after 30 mins by immunoblotting; format: cell-based
MCF7 [15] = assay: Induction of myristoylated AKT2 M225G and kinase dead D289A mutant Thr308 hyperphosphorylation expressed in MCF7 cells at 2.5 uM after 30 mins by immunoblotting; format: cell-based
[16] = tested on: RAC-alpha serine/threonine-protein kinase (Homo sapiens), P31749 [M227G]; assay: Induction of myristoylated AKT1 M227G mutant Ser473 hyperphosphorylation expressed in HEK293T cells at 2.5 uM after 30 mins pretreated with pan-PI3K inhibitor PIK90 for 10 mins before compound addition by immunoblotting; format: cell-based; conditions: HEK-293T
[17] = tested on: RAC-alpha serine/threonine-protein kinase (Homo sapiens), P31749 [M227G]; assay: Induction of myristoylated AKT1 M227G Ser473 hyperphosphorylation expressed in HEK293 cells coexpressing flag-tagged wild type AKT1 after 30 mins by immunoblotting; format: cell-based
HEK-293T [18] = assay: Induction of myristoylated AKT3 M229G mutant Ser473 hyperphosphorylation expressed in HEK293T cells at 2.5 uM after 30 mins pretreated with pan-PI3K inhibitor PIK90 for 10 mins before compound addition by immunoblotting; format: cell-based
[19] = tested on: RAC-alpha serine/threonine-protein kinase (Homo sapiens), P31749 [M227G]; assay: Induction of membrane localized myristoylated AKT1 M227G mutant Thr308 hyperphosphorylation expressed in HEK293T cells at 2.5 uM after 30 mins by immunoblotting; format: cell-based; conditions: HEK-293T
[20] = tested on: RAC-alpha serine/threonine-protein kinase (Homo sapiens), P31749 [M227G]; assay: Induction of myristoylated AKT1 M227G mutant Thr308 hyperphosphorylation expressed in HEK293T cells at 2.5 uM after 30 mins pretreated with pan-PI3K inhibitor PIK90 for 10 mins before compound addition by immunoblotting; format: cell-based; conditions: HEK-293T
MiaPaCa2 [21] = assay: Induction of myristoylated AKT2 M225G and kinase dead D289A mutant Thr308 hyperphosphorylation expressed in MiaPaCa2 cells at 2.5 uM after 30 mins by immunoblotting; format: cell-based
HEK-293T [22] = assay: Induction myristoylated AKT2 M225G mutant Thr308 hyperphosphorylation expressed in HEK293T cells at 2.5 uM after 30 mins by immunoblotting; format: cell-based
[23] = tested on: RAC-alpha serine/threonine-protein kinase (Homo sapiens), P31749 [M227G]; assay: Induction of flag tagged AKT1 M227G Thr308 hyperphosphorylation expressed in HEK293 cells at 2.5 uM after 30 mins by immunoblotting; format: cell-based
[24] = tested on: RAC-alpha serine/threonine-protein kinase (Homo sapiens), P31749 [M227G]; assay: Induction of mCherry tagged AKT1 M227G Ser473 hyperphosphorylation expressed in HEK293 cells at 2.5 uM after 30 mins by immunoblotting; format: cell-based

Chain of RAC-alpha serine/threonine-protein kinase (Rattus norvegicus) (P47196 whole entry): as the sequence (P31749 whole entry) above, with S2N, D46E, A50S, K112R, E117T, S137A, K389T, G410N, H415D counted along it

SMILES: COc1ccccc1N1CCN(c2ncnc3[nH]nc(Br)c23)CC1
- Activity [1]: inactive

SMILES: CCCc1cc(-c2cncc(OC[C@@H](N)Cc3c[nH]c4ccccc34)c2)cc2c(C)n[nH]c12
- Activity (MCF7 [2]): Active
- Activity (HEK-293T [3]): inactive
- Activity (MiaPaCa2 [4]): Active
- Activity [5]: inactive
- Activity (HEK-293T [6]): inactive
- Activity [7]: inactive
- Activity (HEK-293T [8]): Active
- inhibition [9]: Active
- Activity [10]: Dose-dependent effect
- Activity (HEK-293T [11]): inactive
- Activity (PC-3): Active
- Activity (HEK-293T [12]): Active
- Activity (HEK-293T [13]): inactive
- Activity [14]: Active
- Activity (MCF7 [15]): Active
- Activity [16]: inactive
- Activity [17]: Active
- Activity (HEK-293T [18]): inactive
- Activity [19]: Active
- Activity [20]: inactive
- Activity (MiaPaCa2 [21]): Active
- Activity (HEK-293T [22]): Active
- Activity [23]: Active
- Activity [24]: Active
